The text below walks through data of BindingDB's records for PubMed 35598527 (Universidade Federal De Minas Gerais, 2022).

Each structure is given as a SMILES string.

This test is described as follows: Antagonist activity at pig cerebral cortex CCK2 […] by Packbard-Cobra counter analysis.

`C#CCOC1OC(=O)C(Cl)=C1N(CC(C)C)C1CCCCC1` (configuration not stated): the IC50 is 80 nM. Under `CC(C)CNC1=C(Cl)C(=O)OC1OCc1ccccc1` (configuration not stated) stands 85 nM.
